From US8557823B2, “Family of PFKFB3 inhibitors with anti-neoplastic activities” (Advanced Cancer Therapeutics, LLC, priority 2007, dated 2013) come the findings set out here.

The structures appear in SMILES notation.

Experiment [1] has as its system PFKFB3+/- ht/LT/ras fibroblasts. Nature of the experiment: Growth inhibition of PFKFB3 haplo-insufficient transformed fibroblasts. Format: cell-based, mice. The settings on record: Mus musculus, Fibroblast, 48 hours. From the text: FIG. 6B is a bar graph showing the anti-proliferative effects of 3PO in fibroblasts from wild-type (+/+) or haplo-insufficient (+/−) PFKFB3 mice which were subsequently immortalized and transformed with human telomerase (ht), large T antigen (LT), and oncogenic H-ras^v12. Cell numbers (expressed as % of cell numbers of control cells) for transformed wild type (+/+) cells are shown in solid bars and numbers for transformed haplo-insufficient (+/−) cells are shown in striped bars. As indicated at the bottom of the graph, cells were incubated with vehicle or increasing amounts of 3PO (5, 10, 20, 30, 40, or 60 μM). Viable cells were counted after 48 hours. The bars represent the mean±STD of triplicate values from a representative experiment. * p-value<0.01 represents statistical difference between vehicle control and 3PO treated samples.
Cells were collected 48 hours post-treatment, and cell number and viability were determined by trypan blue exclusion. IC50 values were calculated as the compound 1 concentration needed for 50% of vehicle treated cell growth.
One of the most difficult challenges of new anti-neoplastic therapies is in situ target validation. To address this question, two different cell lines with varying levels of PFKFB3 expression were studied. […]

The subject of the next experiment is K562 leukemia cells. In words: In vitro growth inhibition, K562. In kind it is cell-based, human. The settings on record: Homo sapiens, 50% of vehicle control cell growth. As for the experimental part:
The K562, HL-60, MDA-MB231, and melanoma (CRL-11174) human cancer cell lines were purchased from ATCC (American Tissue Type Culture Collection, Manassas, Va., United States of America). HeLa, A549, Lewis Lung Carcinoma, MDA-MB231, and melanoma cells were grown in Dulbecco's Modified Eagle Medium (DMEM) (Hyclone, Logan, Utah, United States of America) supplemented with 10% fetal bovine serum (Hyclone, Logan, Utah, United States of America) and 50 μg/mL gentamicin sulfate (Invitrogen, Carlsbad, Calif., United States of America). The HL-60, K562, and Jurkat cell lines were grown in RPMI-1640 medium (Hyclone, Logan, Utah, United States of America) supplemented with 10% fetal bovine serum and 50 μg/mL gentamicin sulfate. […]
Cells were collected 48 hours post-treatment, and cell number and viability were determined by trypan blue exclusion. […]

In experiment [2] the test system is HL-60 leukemia cell xenografts. In words: HL-60 leukemia xenografts in Balb/c nude mice. Format: in vivo. To be noted: 0.07 mg/g IP, two daily injections followed by seven days off. As for the experimental part: FIG. 7C is a graph showing the effects of 3PO treatment on the growth of established HL-60 acute promyelocytic leukemia xenografts in Balb/c athymic mice. Tumors were measured daily using blunt end Vernier calipers, and mice with established tumors (130-190 mg) were blindly randomized into either a DMSO control group (•, n=11) or a 3PO treatment group (∘, n=12). Experimental mice were weighed and given intraperitoneal (i.p.) injections of either 50 μL DMSO or 0.07 mg/g 3PO in 50 μL DMSO according to a cyclical dosing regimen of two sequential daily injections of DMSO or 3PO followed by seven day rest period for the duration of the study (14 days). Arrows (↓) represent control or 3PO administrations. Statistical difference was obtained after initial injection with a p-value<0.0001.
Exponentially growing MDA-MB231 and HL-60 cells were collected in appropriate medium, washed twice and resuspended in PBS at a concentration of 20×10^7 cells/mL. […] Body weight and tumor growth were monitored daily throughout the study. Tumor masses were determined by measurement with Vernier calipers using the formula: mass (mg)=[width (mm^2)×length (mm)]/2. […]
The first tumor model tested consisted of mouse Lewis Lung Carcinoma xenografts grown in C57/Blk6 mice. For this study, mice were given IP injections of either DMSO or the calculated dose of 1 once daily for the duration of the study (14 days). […]

With `O=C(/C=C/c1cccnc1)c1ccncc1` [Compound 1, 3-(3-pyridinyl)-1-(4-pyridinyl)-2-propen-1-one], the IC50 was 26 µM in experiment [1] and 3.2 µM in the experiment with K562 leukemia cells. Also, the “inhibition of tumor growth compared to DMSO controls” value in experiment [2] was over 74%.
